This note sets out measurements from PubChem BioAssay (NCI).

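Dose response: 5 concentrations. Exposure: 48 h. Format: 96-well plates. Endpoint: linear interpolation; highest concentration if not reached. TGI marks complete inhibition of growth.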

The subject of the first experiment is KM12 colon. As to the kind of experiment: NCI tumour cell line growth inhibition, 48 h.
Take `O=C(CCc1cc(O)cc(O)c1)NCCc1cc(O)cc(O)c1`: the TGI was greater than 100 µM.
As to `CCCCCC(/C=C/C1CCC(=O)C1CC#C[Si](C)(C)C)OCc1ccccc1` (stereo not drawn), the TGI was determined as 33 µM.
As for `COC(=O)C1C=CN(N(C)C)C2=C1C(=O)c1c(O)cccc1C2=O` (stereo not drawn), the TGI was 6.95 µM.

A further experiment concerns NCI-H23 lung. As to the kind of experiment: NCI tumour cell line growth inhibition, 48 h.
On to `COc1ccc(CN(Cc2ccc(OC)cc2)C(=O)CC2(O)C=CCC2)cc1` (stereo not drawn), for which the TGI is greater than 100 µM.
As to `O=C(NC(CO)Cc1ccc(Oc2cc(CC(CO)NC(=O)OCc3ccccc3)ccc2OC(=O)OCc2ccccc2)cc1)OCc1ccccc1` (stereo not drawn), the TGI came out at 36.1 µM.
In turn, `N#C/C(N)=C(\C#N)NC=NCc1ccccc1` showed a TGI greater than 100 µM.
Still for that read-out and setting: the value for `COc1ccc(/C=N/n2c(-c3ccccc3)n[nH]c2=O)cc1` was greater than 100 µM.
`CCc1nc2ccc(N=NN(C)C)cc2[nH]1` showed a TGI greater than 100 µM.
Consider `CN(CCN(C)C(=S)NN)C(=S)NN`, for which the TGI was greater than 100 µM.
`COc1ccc(CCN=C2OCc3ccccc32)cc1OC` returned a TGI greater than 100 µM.
On to `CC(C)(C)c1cc(C(CO)OCCOCCO)cc(C(C)(C)C)c1O` (stereo not drawn), for which the TGI is greater than 100 µM.
In turn, `Cc1ccc(NC(=S)NNC(=O)c2cc(-c3ccccc3)nc3ccccc23)cc1` had a TGI of 27.4 µM.
`O=C(CCc1cc(O)cc(O)c1)NCCc1cc(O)cc(O)c1` registered a TGI greater than 100 µM.
In the case of `CCCCCC(/C=C/C1CCC(=O)C1CC#C[Si](C)(C)C)OCc1ccccc1` (stereo not drawn), the TGI came out at 73.6 µM.
`COC(=O)C1C=CN(N(C)C)C2=C1C(=O)c1c(O)cccc1C2=O` (stereo not drawn) gave a TGI of 4.11 µM.

In another experiment the test system is OVCAR-4 ovarian. The experiment in a line: NCI tumour cell line growth inhibition, 48 h.
Consider `COc1ccc(CN(Cc2ccc(OC)cc2)C(=O)CC2(O)C=CCC2)cc1` (stereo not drawn), for which the TGI is greater than 100 µM.
As for `O=C(NC(CO)Cc1ccc(Oc2cc(CC(CO)NC(=O)OCc3ccccc3)ccc2OC(=O)OCc2ccccc2)cc1)OCc1ccccc1` (stereo not drawn), the TGI is 65.3 µM.
For the compound `N#C/C(N)=C(\C#N)NC=NCc1ccccc1`, the TGI is greater than 100 µM.
`COc1ccc(/C=N/n2c(-c3ccccc3)n[nH]c2=O)cc1` yielded a TGI greater than 100 µM.
Turning to `CCc1nc2ccc(N=NN(C)C)cc2[nH]1`, the TGI was greater than 100 µM.
In the case of `CN(CCN(C)C(=S)NN)C(=S)NN`, the TGI was greater than 100 µM.
Regarding `COc1ccc(CCN=C2OCc3ccccc32)cc1OC`, the TGI was greater than 100 µM.
Take `CC(C)(C)c1cc(C(CO)OCCOCCO)cc(C(C)(C)C)c1O` (stereo not drawn): the TGI is greater than 100 µM.
In the case of `Cc1ccc(NC(=S)NNC(=O)c2cc(-c3ccccc3)nc3ccccc23)cc1`, the TGI was 35.6 µM.
Compound `CCCCCC(/C=C/C1CCC(=O)C1CC#C[Si](C)(C)C)OCc1ccccc1` (stereo not drawn) displayed a TGI greater than 71.8 µM.
On to `COC(=O)C1C=CN(N(C)C)C2=C1C(=O)c1c(O)cccc1C2=O` (stereo not drawn), for which the TGI was 5.57 µM.

For a further experiment, the system named is M14 melanoma. As to the kind of experiment: NCI tumour cell line growth inhibition, 48 h.
Consider `COc1ccc(CN(Cc2ccc(OC)cc2)C(=O)CC2(O)C=CCC2)cc1` (stereo not drawn), for which the TGI is greater than 100 µM.
The same measure, in the same setting: then `O=C(NC(CO)Cc1ccc(Oc2cc(CC(CO)NC(=O)OCc3ccccc3)ccc2OC(=O)OCc2ccccc2)cc1)OCc1ccccc1` (stereo not drawn), with 55.1 µM; and `N#C/C(N)=C(\C#N)NC=NCc1ccccc1`, with greater than 100 µM; and `COc1ccc(/C=N/n2c(-c3ccccc3)n[nH]c2=O)cc1`, with greater than 100 µM.
With `CCc1nc2ccc(N=NN(C)C)cc2[nH]1`, the TGI was greater than 100 µM.
On the same count and under the same terms, then `CN(CCN(C)C(=S)NN)C(=S)NN`, with greater than 100 µM; and `CC(C)(C)c1cc(C(CO)OCCOCCO)cc(C(C)(C)C)c1O` (stereo not drawn), with greater than 100 µM; and `Cc1ccc(NC(=S)NNC(=O)c2cc(-c3ccccc3)nc3ccccc23)cc1`, with 26.8 µM.
Consider `O=C(CCc1cc(O)cc(O)c1)NCCc1cc(O)cc(O)c1`, for which the TGI was greater than 100 µM.
Same read-out and setting: then `CCCCCC(/C=C/C1CCC(=O)C1CC#C[Si](C)(C)C)OCc1ccccc1` (stereo not drawn), with 77.8 µM.

For the next experiment, the system named is SN12C renal. The experiment in a line: NCI tumour cell line growth inhibition, 48 h.
For `COc1ccc(CN(Cc2ccc(OC)cc2)C(=O)CC2(O)C=CCC2)cc1` (stereo not drawn), the TGI is greater than 100 µM.
`O=C(NC(CO)Cc1ccc(Oc2cc(CC(CO)NC(=O)OCc3ccccc3)ccc2OC(=O)OCc2ccccc2)cc1)OCc1ccccc1` (stereo not drawn) yielded a TGI greater than 100 µM.
In turn, `N#C/C(N)=C(\C#N)NC=NCc1ccccc1` displayed a TGI greater than 100 µM.
`COc1ccc(/C=N/n2c(-c3ccccc3)n[nH]c2=O)cc1` gave a TGI greater than 100 µM.
Same read-out and setting: then `CCc1nc2ccc(N=NN(C)C)cc2[nH]1`, with greater than 100 µM; and `CN(CCN(C)C(=S)NN)C(=S)NN`, with greater than 100 µM.
Still for that read-out and setting: the value for `COc1ccc(CCN=C2OCc3ccccc32)cc1OC` was greater than 100 µM; that for `CC(C)(C)c1cc(C(CO)OCCOCCO)cc(C(C)(C)C)c1O` (stereo not drawn) was greater than 100 µM; that for `Cc1ccc(NC(=S)NNC(=O)c2cc(-c3ccccc3)nc3ccccc23)cc1` was 31.8 µM.
Compound `O=C(CCc1cc(O)cc(O)c1)NCCc1cc(O)cc(O)c1` gave a TGI greater than 100 µM.
For `CCCCCC(/C=C/C1CCC(=O)C1CC#C[Si](C)(C)C)OCc1ccccc1` (stereo not drawn), the TGI was determined as 39 µM.
The compound `COC(=O)C1C=CN(N(C)C)C2=C1C(=O)c1c(O)cccc1C2=O` (stereo not drawn) came in with a TGI of 3.95 µM.

In another experiment the test system is SK-OV-3 ovarian. As to the kind of experiment: NCI tumour cell line growth inhibition, 48 h.
As to `COc1ccc(CN(Cc2ccc(OC)cc2)C(=O)CC2(O)C=CCC2)cc1` (stereo not drawn), the TGI was greater than 100 µM.
In turn, `O=C(NC(CO)Cc1ccc(Oc2cc(CC(CO)NC(=O)OCc3ccccc3)ccc2OC(=O)OCc2ccccc2)cc1)OCc1ccccc1` (stereo not drawn) gave a TGI of 69.8 µM.
The compound `N#C/C(N)=C(\C#N)NC=NCc1ccccc1` gave a TGI greater than 100 µM.
In the case of `COc1ccc(/C=N/n2c(-c3ccccc3)n[nH]c2=O)cc1`, the TGI was greater than 100 µM.
Same read-out and setting: the value for `CN(CCN(C)C(=S)NN)C(=S)NN` was greater than 100 µM.
